pIC50: −log10 of the molar value. Where two headings read alike, the source gives them in different places.
Key:
[1] = system: Normal Human Dermal Fibroblast (NHDF); test: Sulforhodamine B cytotoxicity assay, NHDF; assay type: cell-based; conditions: for toxicity to NHDF cells compared: compared with well known anticancer drugs
Description: (§1) In addition to the DNA cleavage screening already discussed, several of the before-described compounds were screened against a panel of twelve cancerous cell lines as target cells and four "normal" cell preparations. This screening utilized a sulforhodamine B cytotoxicity assay as discussed below.
(§2) SULFORHODAMINE B CYTOTOXICITY ASSAY
(§3) 1. Preparation of target cells in 96-well plates
(§4) 2. Preparation of sample drugs and toxic control
(§5) 3. Addition of Sample Drugs, Compounds and Controls to 96-well Plates
(§6) f. Incubate (37° C., 5-10 percent CO2 in humidified incubator) plates for a total of 72 hours. Check plates at 24 hour intervals microscopically for signs of cytotoxicity.
(§7) IC50 values; i.e., the concentration of Compound required to kill one-half of the treated cells, where then calculated.
(§8) The cell lines assayed are listed below along with their respective sources:
(§9) Separate control studies were also carried out using the following well known anticancer drugs with the following IC50 values for NHDF and cancer cells.

[2] = system: Human Mammary Epithelial Cells (HMEC); test: Sulforhodamine B cytotoxicity assay, HMEC; assay type: cell-based; conditions: normal, 72 hours
Description: as §1, §2, §3, §4, §5, §6, §7
(§10) The cell lines assayed are listed below along with their respective sources: […]

[3] = system: Normal Human Epidermal Keratinocytes (NHEK); test: Sulforhodamine B cytotoxicity assay, NHEK; assay type: cell-based; conditions: 72 hours
Description: as §1, §2, §3, §4, §5, §6, §7, §10

[4] = system: Chinese Hamster Ovary (CHO); test: Sulforhodamine B cytotoxicity assay, CHO; assay type: cell-based; conditions: Cricetulus griseus, normal, 72 hours
Description: as §1, §2, §3, §4, §5, §6, §7, §10

SK-Mel-28 (Melanoma) = test: Sulforhodamine B cytotoxicity assay, SK-Mel-28; assay type: cell-based; conditions: Homo sapiens, 72 hours
Description: as §1, §2, §3, §4, §5, §6, §7, §10

[5] = system: Capan-1 (Pancreatic Carcinoma); test: Sulforhodamine B cytotoxicity assay, Capan-1; assay type: cell-based; conditions: Homo sapiens, 72 hours
Description: as §1, §2, §3, §4, §5, §6, §7, §10

H-322 (Lung Carcinoma) = test: Sulforhodamine B cytotoxicity assay, H-322; assay type: cell-based; conditions: Homo sapiens, NCI-H322, 72 hours
Description: as §1, §2, §3, §4, §5, §6, §7, §10

[6] = system: UCLA P-3 (Lung Carcinoma); test: Sulforhodamine B cytotoxicity assay, UCLA P-3; assay type: cell-based; conditions: Homo sapiens, 72 hours
Description: as §1, §2, §3, §4, §5, §6, §7, §10

MCF-7 (Breast Carcinoma) = test: Sulforhodamine B cytotoxicity assay, MCF-7; assay type: cell-based; conditions: Homo sapiens, MCF7, 72 hours
Description: as §1, §2, §3, §4, §5, §6, §7, §10

[7] = system: Ovcar-3 (Ovarian Carcinoma); test: Sulforhodamine B cytotoxicity assay, Ovcar-3; assay type: cell-based; conditions: Homo sapiens, 72 hours
Description: as §1, §2, §3, §4, §5, §6, §7, §10

HT-29 (Colon Carcinoma) = test: Sulforhodamine B cytotoxicity assay, HT-29; assay type: cell-based; conditions: Homo sapiens, 72 hours
Description: as §1, §2, §3, §4, §5, §6, §7, §10

[8] = system: HL-60 (Promyeocytic Leukemia); test: Sulforhodamine B cytotoxicity assay, HL-60; assay type: cell-based; conditions: Homo sapiens, 72 hours
Description: as §1, §2, §3, §4, §5, §6, §7, §10

Molt-4 (T-Cell Leukemia) = test: Sulforhodamine B cytotoxicity assay, Molt-4; assay type: cell-based; conditions: Homo sapiens
Description: as §1, §2, §3, §4, §5, §6, §7, §10

P-388 (Mouse Leukemia) = test: Sulforhodamine B cytotoxicity assay, P-388; assay type: cell-based; conditions: P388, 72 hours
Description: as §1, §2, §3, §4, §5, §6, §7, §10

φX174 form I DNA = test: Cleavage of cell-free supercoiled DNA, agarose gel electrophoresis; assay type: biochemical; conditions: pH 7.4, 37° C., 15 hours
Protocol: FIG. 1 is a photograph of an ethidium bromide stained 1 percent agarose electrophoresis gel o that illustrates the cleavage of .phi.X174 form I DNA (100 μM base pairs) by Compounds 7, 8, 9, 10 and 12 at 50-5000 μM after 15 hours at 37° C. at a pH value of 7.4 in 50 […]. […] Lanes 2-10 correspond to the following: Lane 2: Compound 12 (100 μM); Lane 3: Compound 10 (100 μM); Lane 4: Compound 7 (100 μM); Lane 5: Compound 8 (100 μM); Lanes 6-10: Compound 9 (50, 100, 500, 1000 and 5000 μM). Forms I, II and III shown to the left of the photograph show the relative migrations of supercoiled (form I) relaxed (form II) and linear (form III) DNA, respectively.
To a vial containing 9 microliters of a cell-free .phi.X174 Type I double-stranded DNA in pH 7.4 […] Tris-HCl buffer was added 1 microliter of a 1.0 millimolar or other appropriate ethanol solution of Compounds 7, 8, 9, 10 and 12.
The vials were then placed in a 37° C. oven for 15 hours. A 2.0 microliter portion of glycerol loading buffer solution containing bromothymol blue indicator was added to each vial. A 10 microliter aliquot was then drawn from each. Gel electrophoresis analysis of the aliquots was performed using a 1.0 percent agarose gel with ethidium bromide run at 115 volts for one hour. DNA cleavage was indicated by the formation of Type II DNA, which was detected by visual inspection of the gel under 310 nanometer ultraviolet light.

[9] = Cycloaromatization studies using 1,4-cyclohexadiene in toluene; assay type: physicochemical
Description: These reactions provided Compounds 11-13 as shown schematically in Scheme 2, below. [drawing 9]

[10] = Stability observed during synthesis; assay type: physicochemical
Protocol: Finally, PCC oxidation (4.0 equivalents PCC, 4Å molecular sieves in CH2 Cl2 at 25° C. for 0.5 hour) of Compound 8 afforded the tricarbonyl Compound 10 in 49 percent yield as step i.

[11] = system: SIHA (Cervical Carcinoma); test: Sulforhodamine B cytotoxicity assay, SIHA; assay type: cell-based; conditions: Homo sapiens, 72 hours
Description: as §1, §2, §3, §4, §5, §6, §7, §10

786-0 (Renal Carcinoma) = test: Sulforhodamine B cytotoxicity assay, 786-0; assay type: cell-based; conditions: Homo sapiens, 72 hours
Description: as §1, §2, §3, §4, §5, §6, §7, §10

Cancer Cells = test: cells; assay type: cell-based, human or mouse
Description: as §1, §2, §3, §4, §5, §6, §7, §8, §9

[12] = control anticancer drugs, read-out: Range of Average IC50 Values, NHDF
[13] = Homo sapiens, normal, 72 hours, read-out: IC50 Values
[14] = MOLT-4, 72 hours, read-out: IC50 Values
[15] = 110° C., 1,4-cyclohexadiene in toluene
[16] = Molt-4 leukemia cells, read-out: IC50
[17] = 55° C., 1,4-cyclohexadiene in toluene
[18] = Homo sapiens, control anticancer drugs, read-out: Range of Average IC50 Values, NHDF

| Compound | pIC50 [1, 13] | pIC50 [2] | pIC50 [3] | pIC50 [4] | pIC50 (SK-Mel-28 (Melanoma)) | pIC50 [5] | pIC50 (H-322 (Lung Carcinoma)) | pIC50 [6] | pIC50 (MCF-7 (Breast Carcinoma)) | pIC50 [7] | pIC50 (HT-29 (Colon Carcinoma)) | pIC50 [8] | pIC50 (Molt-4 (T-Cell Leukemia); [14]) | DNA cleaving activity (φX174 form I DNA) | further results |
| --- | --- | --- | --- | --- | --- | --- | --- | --- | --- | --- | --- | --- | --- | --- | --- |
| N.N.[Cl][Pt][Cl] [Cis-Platin, reference compound] | – | – | – | – | – | – | – | – | – | – | – | – | – | – | pIC50 [1, 12]: 4.30 |
| Cc1c(C)c(OC(=O)C(C)(C)C)c2c(c1OC(=O)C(C)(C)C)C#CCCCC(O)C#C2 (centres unmarked) [Compound 7] | 4.00 | 4.00 | 4.60 | 4.00 | 4.00 | 4.89 | 4.00 | 4.89 | 4.30 | 4.89 | 4.89 | 4.00 | 4.00 | no DNA cleaving activity | pIC50 (P-388 (Mouse Leukemia)): 4.89; half life (t1/2) of cycloaromatization [9, 15]: 74 h; stability ([10]; ambient temperature): quite stable |
| CC1=C(C)C(=O)C2=C(C#CCCCC(O)C#C2)C1=O (centres unmarked) [Compound 8] | 5.51 | 5.51 | 5.51 | 5.49 | 5.20 | 5.51 | 4.89 | 5.20 | 5.20 | 5.20 | 5.20 | 5.11 | 7.00 | significant DNA damaging properties | toxicity to NHDF cells compared [1]: similarly toxic to the normal NHDF and cancer cells except Molt-4 cells; pIC50 (Molt-4 (T-Cell Leukemia); [16]): 6.30; pIC50 (P-388 (Mouse Leukemia)): 5.70; half life (t1/2) of cycloaromatization [9, 17]: 2.6 h; thermal stability [10]: thermally labile |
| Cc1c(C)c(O)c2c(c1O)C#CCCCC(O)C#C2 (centres unmarked) [Compound 9] | 4.60 | 4.60 | 4.89 | 4.89 | 4.60 | 4.89 | 4.60 | 4.60 | 4.60 | 4.60 | 4.60 | 5.80 | 4.30 | significant DNA damaging properties | pIC50 (P-388 (Mouse Leukemia)): 5.51; cycloaromatization behaviour [9, 15]: complicated kinetics due to ease of conversion to Compound 8 even under oxygen extrusion conditions, but seems quite stable prior to oxidation; air sensitivity [10]: air-sensitive; stability ([10]; neutral conditions): relatively stable |
| CC1=C(C)C(=O)C2=C(C#CCCCC(=O)C#C2)C1=O [Compound 10] | 4.00 | 4.00 | 4.00 | 4.00 | 4.00 | 4.00 | 4.00 | 4.30 | 4.89 | 4.60 | 4.30 | 4.60 | 5.92 | significant DNA damaging properties | toxicity to NHDF cells compared [1]: less toxic than those well known anticancer drugs against the NHDF cells; pIC50 [11]: 4.89; pIC50 (786-0 (Renal Carcinoma)): 4.30; pIC50 (Molt-4 (T-Cell Leukemia); [16]): 6.00; potency in cytotoxicity studies (Cancer Cells; variety of cell lines, in words): most impressive results; half life (t1/2) of cycloaromatization [9, 17]: 0.533 h; reactivity in cycloaromatization studies ([9]; series 7-10): most reactive member of the series 7-10 |
| CC1=C(C)C(=O)c2cc3c(cc2C1=O)CCCC3O (centres unmarked) [Compound 12] | – | – | – | – | – | – | – | – | – | – | – | – | – | minor activity | – |
| COc1cccc2c1C(=O)c1c(O)c3c(c(O)c1C2=O)C[C@@](O)(C(=O)CO)C[C@@H]3O[C@H]1C[C@H](N)[C@H](O)[C@H](C)O1 [Doxorubicin, reference compound] | – | – | – | – | – | – | – | – | – | – | – | – | – | – | pIC50 (Cancer Cells; control anticancer drugs, cancer cells, read-out: Range of Average IC50 Values, Cancer Cells): 7.01 to 9.80 |
| COC1=C(C(=O)O)[C@H](C)[C@@]23O[C@]24c2cc(O)c5c(c2N[C@H]3C#C/C=C\C#C[C@H]14)C(=O)c1c(O)ccc(O)c1C5=O [Dynemicin A, reference compound] | – | – | – | – | – | – | – | – | – | – | – | – | – | – | pIC50 [1, 12]: 8.00 |
| N[C@@H](Cc1ccc(N(CCCl)CCCl)cc1)C(=O)O [Melphelan, reference compound] | – | – | – | – | – | – | – | – | – | – | – | – | – | – | pIC50 ([1]; Homo sapiens, read-out: Range of Average IC50 Values, NHDF): 4.00 |
| CN(Cc1cnc2nc(N)nc(N)c2n1)c1ccc(C(=O)N[C@@H](CCC(=O)O)C(=O)O)cc1 [Methotrexate, reference compound] | – | – | – | – | – | – | – | – | – | – | – | – | – | – | pIC50 [1, 18]: 4.30 |
| CC(=O)O[C@H]1C(=O)[C@@]2(C)[C@H]([C@H](OC(=O)c3ccccc3)[C@]3(O)C[C@H](OC(=O)[C@H](O)[C@@H](NC(=O)c4ccccc4)c4ccccc4)C(C)=C1C3(C)C)[C@]1(OC(C)=O)CO[C@@H]1C[C@@H]2O [Taxol, reference compound] | – | – | – | – | – | – | – | – | – | – | – | – | – | – | pIC50 [1, 18]: 8.00 |
| Calicheamicin [reference compound] | – | – | – | – | – | – | – | – | – | – | – | – | – | – | pIC50 [1, 12]: 8.60 |
